Experimental data taken from PubChem BioAssay (NCI).
Several values for one entry are separate records, joined by “and”; a condition that tells them apart may be missing. Identical values can stand only once.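 A five-concentration, 48-hour dose response in 96-well plates underlies each endpoint, interpolated linearly between surrounding concentrations. At the GI50, growth is halved. TGI marks complete inhibition of growth.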

Legend:
Experiment in all cases: NCI-60 cell line screen, 48 h
MOLT-4 leukemia = test system: MOLT-4 leukemia
MALME-3M melanoma = test system: MALME-3M melanoma
SNB-75 CNS = test system: SNB-75 CNS
RXF 393 renal = test system: RXF 393 renal
HCC-2998 colon = test system: HCC-2998 colon
A498 renal = test system: A498 renal
CCRF-CEM leukemia = test system: CCRF-CEM leukemia
OVCAR-4 ovarian = test system: OVCAR-4 ovarian
A549 NSCLC = test system: A549 NSCLC
HT29 colon = test system: HT29 colon

Compound	GI50 (MOLT-4 leukemia)	TGI (MOLT-4 leukemia) [µM]	GI50 (MALME-3M melanoma)	TGI (MALME-3M melanoma) [µM]	GI50 (SNB-75 CNS)	TGI (SNB-75 CNS)	GI50 (RXF 393 renal) [µM]	TGI (RXF 393 renal) [µM]	GI50 (HCC-2998 colon) [µM]	TGI (HCC-2998 colon) [µM]	GI50 (A498 renal)	TGI (A498 renal)	GI50 (CCRF-CEM leukemia)	TGI (CCRF-CEM leukemia) [µM]	GI50 (OVCAR-4 ovarian)	TGI (OVCAR-4 ovarian) [µM]	GI50 (A549 NSCLC)	TGI (A549 NSCLC) [µM]	GI50 (HT29 colon)	TGI (HT29 colon) [µM]
OC1CCC(Oc2cccc3cnc(Nc4ccc5nc[nH]c5c4)nc23)CC1 (centres undefined)	0.157 µM	0.636	1.03 µM	5.01	0.12 µM	2.21 µM	0.208	0.504	0.708	9.09	0.335 µM	0.866 µM	0.282 µM	17.3	1.06 µM	16	0.404 µM	19.7	0.437 µM	9.15
CCOC(=O)c1c2ccc(/C=C/C(=O)OC)ccc-2c(C(=O)OCC)c1N		> 100		> 100		> 100 µM		> 100		> 100		49.4 µM		> 100		> 100		> 100		> 100
CN(C)CCNc1cccc2sc3ccc(O)cc3c(=O)c12	0.483 µM	2.81	1.59 µM	3.13	2.33 µM	12.2 µM	1.95	7.38	1.56	3.1	10.8 µM	24.1 µM	0.777 µM	6.61	2.75 µM	12.3	0.643 µM	5.54	1.63 µM	4.08
O=c1oc2c3ccc4ccccc4c3n(Cc3nc4ccccc4[nH]3)c2c2ccccc12		> 100		> 100		> 87.7 µM		> 100		> 100		> 100 µM		> 100		> 100		> 100		> 63.4
CCN(CC)CC(C)Nc1ccc(C)c2sc3ccccc3c(=O)c12 (centres undefined)	1.68 µM	5.93	2.45 µM	8.29	2.2 µM	10.8 µM		1.97	3.19	15	1.92 µM	8.07 µM	4.33 µM	18	7.61 µM	20.5	3.02 µM	16.8	3.29 µM	10.8
CCOC(=O)/C=C/c1ccc(C(=O)OCC)[nH]1	4.42 µM	> 100	2.89 µM	> 100	2.82 µM	35.9 µM	9.59	46.9	12.3	77.3	1.61 µM	12.1 µM	6.04 µM	> 100	20.3 µM	> 100	5.69 µM	> 100	2.82 µM	14.2
O=C1c2cccc3cc([N+](=O)[O-])cc(c23)C(=O)N1CCCN1CCN(CCCN2C(=O)c3cccc4cc([N+](=O)[O-])cc(c34)C2=O)CC1		> 100		25.3		9.54 µM		1.76		54.3		3.87 µM		> 100		5.96		> 100		> 100
CCCCCCCCCCCC(=O)C1=C(O)C(O)CCC1=O (centres undefined)		60.3		32		67.7 µM		> 100		52.9		43.2 µM		40.6		90.8		> 100		30.1
CCOC(=O)/C=C(/CN1C(=O)c2ccccc2C1=O)c1ccccc1		> 100		> 100		> 100 µM		> 100		> 100		> 100 µM		> 100		> 100		> 100		> 100
Cn1cnc([N+](=O)[O-])c1Sc1ncnc2nc[nH]c12	8.77 µM and 6.68 µM	> 100	4.22 µM and 34.9 µM	> 100	0.461 µM and 3.03 µM	17.1 µM and > 100 µM	35.2	> 100	5.64	> 100	8.55 µM and 26.1 µM	82 µM and > 100 µM	3.64 µM and 5.1 µM	> 100	3.38 µM and 10.2 µM	> 100	40 µM and > 67.3 µM	> 100	7.17 µM and 22.6 µM	> 100
CCOC(=O)/C(C1=CC(=O)C(=O)c2ccccc21)=C(/C)NCc1ccccc1	0.182 µM	0.434	1.66 µM	3.57	3.11 µM	55.5 µM	0.186	1.73	2.85	8.2	4.77 µM	10.4 µM	0.0144 µM	0.0649	3.12 µM	56.7	2.4 µM	6.42	4.36 µM	> 100
